# In patent US9586885B2, “Compounds for use in the treatment of inflammatory bowel disease” (Venantius Limited, priority 2011, dated 2017):
# Like-named read-outs stand apart in the source and are kept apart here.
# Key:
# 5% DSS colitis = assay: Acute murine 5% DSS colitis model; type: in vivo; conditions: for inhibition of colon shortening (colon length) day 7 versus vehicle: FIG. 10; for colon pathology (histology score) relative to vehicle: FIG. 12; for colon IL1β level versus DSS vehicle / colon TNFα level versus DSS vehicle / colon IL6 level versus DSS vehicle / reduction of colonic myeloperoxidase (MPO) activity: day 7; for colon IL1β level versus DSS vehicle: FIG. 14(a); for colon TNFα level versus DSS vehicle: FIG. 14(b); for colon IL6 level versus DSS vehicle: FIG. 14(c); for reduction of colonic myeloperoxidase (MPO) activity: FIG. 13; for DAI on the day of autopsy versus vehicle controls: FIG. 9; for effect on DAI compared to vehicle control: FIG. 5
# From the text: The study is widely used as a model for studying the pathogenesis of UC and also for screening new therapeutic interventions for the treatment of UC.
# In these studies, an acute colitis model was used, with 5% DSS administered in the drinking water of BALB/c mice. This dosage regime induces severe acute colitis, by days 7-8 mice had overt rectal bleeding and marked weight loss; unless sacrificed beforehand, all mice would have died by days 10-12.
# Specific Pathogen-Free BALB/c mice, 6-8 weeks of age, were obtained from a commercial supplier (Harlan UK). Mice were fed irradiated diet and housed in individually ventilated cages (Tecniplast UK) under positive pressure.
# DSS (5%) was dissolved in drinking water. Compounds were administered orally at a dose of 10 mg/kg or 30 mg/kg on days 0-7, and mice were culled on day 8 or day 9, depending on the severity of the disease. The mice were checked each day for morbidity and the weight of individual mice was recorded. Induction of colitis was determined upon autopsy, length of colon and histology. Colons were recovered and stored at −20° C. for immunological analysis. All of the compounds and experimental groups are randomly alphabetically labelled. Throughout experiments all data recording was performed in a blind manner. The codes on boxes/groups were not broken until after the data was analysed i.e. boxes labelled A, B, C etc were identified as untreated, DSS-treated, or DSS+compound-treated.
# To quantify the extent of colitis, a disease activity index (DAI) was determined based on weight loss, faecal blood and stool consistency. A score was given for each parameter, with the sum of the scores used as the DAI. For each treatment group n=8.
# All compounds were prepared for oral gavage (0.1 mL per os (p.o.) per 10 g body weight) as a suspension in 0.5% carboxymethyl cellulose/2% Tween 80, at a dose of 3-30 mg/Kg.
# [1] = Partition coefficient by HPLC method (reverse phase C18); type: physicochemical; conditions: for Acid Log10 POW: acidic pH; for Basic Log10 POW: alkaline pH; for Neutral Log10 POW: neutral pH
# [2] = Solubility in water and buffers; type: physicochemical; conditions: for aqueous solubility (in words): free acid enantiomers
# Experimental: The sodium salt, potassium salt, calcium salt, α-methylbenzylamine salt and N-Methyl-(D)-Glucamine salt were synthesised.
# The solubility of the four compounds was determined: […]
# [3] = test system: chronic colitis in IL10^--/-- mice; assay: Chronic IL10-/- colitis model; type: in vivo, BALB/c strain mice; conditions: 300 mg/kg/week oral, MWF
# Experimental: FIG. 15 Is a grph showing weight loss in IL10^--/--mice treated with vehicle or compound 6. Mice were administered compound 6 (300 mg/kg/week) or vehicle orally on a Monday/Wednesday/Friday (MWF) dosing schedule. Mice were ˜4 weeks of age at start of experiment and were treated for 9 weeks. Mice were weighed weekly and data are presented as Mean±SEM from 9-12 mice per group. Mice were monitored for overt disease, rectal prolapse, and moribund animals were humanely killed;
# Mice with a deletion in the IL10^--/-- gene spontaneously develop chronic colitis, with the age of onset and the severity of the disease being dependent on background mouse strain and the conditions in which the animals are housed. The onset of colitis in IL10^--/-- mice housed under the conditions used in this study was also strain dependent, with an earlier onset and greater severity, in terms of mortality, in BALB/c strain mice relative to C57BL/6 strain animals. In this experiment, animals received oral treatment on a MWF regime over 9 weeks. Initially, both groups of mice progressively gain weight (FIG. 15). […] By week 9 animals had marked weight loss, with one moribund animal humanely killed on day 60 in each group. As other mice were losing weight and developing clinical symptoms of disease, both groups were culled at week 9 (day 63) and analysed. […] Serum was recovered from mice and Serum Amyloid A (SAA) and was analysed as a marker for severity of colitis.
# [4] = 10 mg/kg daily for 7 days, vehicle 9.3±0.51, FIG. 6
# [5] = 30 mg/kg p.o. daily for 7 days, vehicle controls 9.0+0.53, FIG. 4
compound,measurement,setting,value
"O=C(O)c1ccc(C[C@@]2(C3=Cc4ccccc4C3)Cc3ccccc3[C@@H]2O)cc1 [Compound 4, 4-(((1R,2S)-1-hydroxy-2,3-dihydro-1H,1′H-2,2′-biinden-2-yl)methyl)benzoic acid]",activity in 5% DSS murine colitis model (conclusion),5% DSS colitis; 30 mg/kg p.o. daily for 7 days,almost devoid of activity
same,DAI versus vehicle at any time point,"5% DSS colitis; 30 mg/kg p.o. daily for 7 days, FIG. 3",without activity
"O=C(O)c1ccc(C[C@@]2(C3=Cc4ccccc4C3)Cc3ccccc3[C@H]2O)cc1 [Compound 6, 6-(Methylamino)hexane-1,2,3,4,5-pentanol 4-(((1S,2S)-1-hydroxy-2,3-dihydro-1H,1′H-2,2′-biinden-2-yl)methyl)benzoate]",Acid Log10 POW,[1],2.6
same,Basic Log10 POW,[1],4.3
same,Neutral Log10 POW,[1],3.5
same,inhibition of colon shortening (colon length) day 7 versus vehicle,5% DSS colitis; 3 mg/kg,did not have a significant effect
same,colon pathology (histology score) relative to vehicle,"5% DSS colitis; 10 mg/Kg, P<0.01",highly statistically significant reduction
same,disease activity index (DAI) at day 7,5% DSS colitis; [4],3.3±0.52
same,inhibition of colon shortening (colon length) day 7 versus vehicle,5% DSS colitis; 10 mg/kg,did have a significant effect
same,therapeutic efficacy in the DSS model relative to prednisolone,5% DSS colitis; 30 mg/Kg versus prednisolone 5 mg/Kg,"comparable, or better, efficacy relative to prednisolone"
same,colon pathology (histology score) relative to vehicle,"5% DSS colitis; 30 mg/Kg, P<0.01",highly statistically significant reduction
same,colon length day 7 compared with Prednisolone,"5% DSS colitis; 30 mg/kg versus Prednisolone 5 mg/kg, P<0.05",significantly better than Prednisolone
same,colon IL1β level versus DSS vehicle,5% DSS colitis; 30 mg/kg,"significant (P<0.05, 30 mg/kg) and dose-dependant reduction"
same,colon TNFα level versus DSS vehicle,5% DSS colitis; 30 mg/kg,"significant (P<0.05, 30 mg/kg) and dose-dependant reduction"
same,colon IL6 level versus DSS vehicle,5% DSS colitis; 30 mg/kg,"significant (P<0.05, 30 mg/kg) and dose-dependant reduction"
same,reduction of colonic myeloperoxidase (MPO) activity,"5% DSS colitis; 30 mg/kg, P<0.05",63%
same,inhibition of colon shortening (colon length) day 7 versus vehicle,5% DSS colitis; 30 mg/kg,did have a significant effect
same,"severity of colitis, multiple parameters of disease","5% DSS colitis; 3, 10 and 30 mg/Kg oral daily for 7 days, dose-dependent",ameliorated the severity of colitis
same,DAI on the day of autopsy versus vehicle controls,"5% DSS colitis; 3-30 mg/kg, each dose level",significantly (P<0.05−P<0.01) lower DAI
same,overt reactions in mice,"5% DSS colitis; oral daily for 7 days, 3, 10 and 30 mg/Kg",no overt reactions
same,solubility,"[2]; Milli-RO water, * = estimated value, read-out: solubility Milli-RO H20",> 60 mg/mL
same,solubility,"[2]; aqueous buffer, pH 7.0 buffer, * = estimated value, read-out: solubility pH 7.0 Buffer",> 60 mg/mL
same,solubility,"[2]; aqueous buffer, pH 9.0 buffer, * = estimated value, read-out: solubility pH 9.0 Buffer",> 3 mg/mL
same,survival over 9 weeks by Kaplan-Meier analysis versus vehicle,[3],no statistical difference in survival
same,mortalities,"[3]; 9 weeks, vehicle 25%",9.2%
same,weight gain,"[3]; 9 weeks, vehicle stopped gaining from week 5, FIG. 15",maintained weight gain until week 8
same,Serum Amyloid A (SAA) levels relative to vehicle,"[3]; week 9, FIG. 16",significantly (P<0.05; Student's t-test) reduced SAA levels
same,extent of colon pathology (histology score of distal colon) relative to vehicle,"[3]; week 9, P<0.05, FIG. 18",significantly reduced
"CNCC(O)C(O)C(O)C(O)CO.O=C(O)c1ccc(C[C@]2(C3=Cc4ccccc4C3)Cc3ccccc3[C@H]2O)cc1 [Compound 7, 6-(Methylamino)hexane-1,2,3,4,5-pentanol 4-(((1S,2R)-1-hydroxy-2,3-dihydro-1H,1′H-2,2′-biinden-2-yl)methyl)benzoate]",Acid Log10 POW,[1],3.8
same,Basic Log10 POW,[1],3.5
same,Neutral Log10 POW,[1],3.5
same,effect on DAI compared to vehicle control,5% DSS colitis; 10 mg/kg daily for 7 days,no significant (P>0.05) effect
same,solubility Milli-RO H20,"[2]; Milli-RO water, * = estimated value, listed as Compound 5 N-Methyl-D-Glucamine salt",">60,000* μg/mL"
same,solubility pH 4.0 Buffer,[2]; pH 4.0 buffer,0.14 μg/mL
same,solubility pH 7.0 Buffer,"[2]; pH 7.0 buffer, * = estimated value, listed as Compound 5 N-Methyl-D-Glucamine salt",">60,000* μg/mL"
same,solubility pH 9.0 Buffer,"[2]; pH 9.0 buffer, * = estimated value, listed as Compound 5 N-Methyl-D-Glucamine salt",">60,000* μg/mL"
"O=C(O)c1ccc(C[C@@]2(C3=Cc4ccccc4C3)Cc3ccccc3[C@H]2O)cc1 (single isomer, unassigned) [Compound 2]",disease activity index (DAI) at day 7,5% DSS colitis; [4],2.1±0.7
same,activity in 5% DSS murine colitis model (conclusion),5% DSS colitis; 30 mg/kg p.o. daily for 7 days,highly active
same,disease activity index (DAI) at day 7,5% DSS colitis; [5],2.5±0.71
same,aqueous solubility (in words),[2],limited aqueous solubility
"O=C(O)c1ccc(C[C@]2(C3=Cc4ccccc4C3)Cc3ccccc3[C@H]2O)cc1 [Compound 5, 4-(((1S,2R)-1-hydroxy-2,3-dihydro-1H,1′H-2,2′-biinden-2-yl)methyl)benzoic acid]",Acid Log10 POW,[1],3.9
same,Basic Log10 POW,[1],3.7
same,Neutral Log10 POW,[1],3.7
same,effect on DAI compared to vehicle control,5% DSS colitis; 10 mg/kg daily for 7 days,no significant (P>0.05) effect
same,activity in 5% DSS murine colitis model (conclusion),5% DSS colitis; 30 mg/kg p.o. daily for 7 days,highly active
same,disease activity index (DAI) at day 7,5% DSS colitis; [5],3.2±0.73
same,aqueous solubility (in words),[2],limited aqueous solubility
"O=C(O)c1ccc(C[C@]2(C3=Cc4ccccc4C3)Cc3ccccc3[C@@H]2O)cc1 (single isomer, unassigned) [Compound 3]",activity in 5% DSS murine colitis model (conclusion),5% DSS colitis; 30 mg/kg p.o. daily for 7 days,minimal activity
same,disease activity index (DAI) at day 7,5% DSS colitis; [5],5.3±0.6
same,DAI versus vehicle at day 6,"5% DSS colitis; 30 mg/kg p.o. daily, FIG. 3",no statistical (P>0.05) difference
"C[C@]12C=CC(=O)C=C1CC[C@@H]1[C@@H]2[C@@H](O)C[C@@]2(C)[C@H]1CC[C@]2(O)C(=O)CO [Prednisolone, reference compound]",colon pathology (histology score) relative to vehicle,5% DSS colitis; 5 mg/Kg,no significant improvement
same,colon IL1β level versus DSS vehicle,5% DSS colitis; 5 mg/kg,reduced (p<0.05)
same,colon TNFα level versus DSS vehicle,5% DSS colitis; 5 mg/kg,reduced (p<0.05)
same,colon IL6 level versus DSS vehicle,5% DSS colitis; 5 mg/kg,reduced (p<0.05)
same,reduction of colonic myeloperoxidase (MPO) activity,"5% DSS colitis; 5 mg/kg, P<0.05",54%
same,DAI on the day of autopsy versus vehicle controls,5% DSS colitis; 5 mg/kg,reduced DAI scores
same,inhibition of colon shortening (colon length) day 7 versus vehicle,5% DSS colitis; 5 mg/kg,did have a significant effect
